Test results: patent US20160060260A1, “BROMODOMAIN INHIBITORS FOR TREATING DISEASE” (Board of Regents, The University of Texas System, priority 2014, published 2016)
pIC50, pKd: −log10 of the molar value.

Assays:
[1] = target: T1, BRPF1 (Homo sapiens, UniProt P55201); test: BROMOscan DiscoveRx Binding Constant Assay (BRPF1); settings: qPCR readout
T1 construct: purchased DiscoveRx (BROMOscan); host or cells: T7 phage in E. coli host derived from BL21
T1 sequence (P55201 628-732 limits assumed): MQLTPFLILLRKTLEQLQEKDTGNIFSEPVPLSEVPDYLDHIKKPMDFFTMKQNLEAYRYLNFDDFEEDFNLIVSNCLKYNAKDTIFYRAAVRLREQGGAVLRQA
From the text: (§1) Compounds that bind the bromodomain active site and directly (sterically) or indirectly (allosterically) prevent bromodomain binding to the immobilized ligand, will reduce the amount of protein captured on the solid support (Panels A & B). […] Screening “hits” are identified by measuring the amount of bromodomain captured in test versus control samples by using a quantitative, precise and ultra-sensitive qPCR method that detects the associated DNA label. In a similar manner, dissociation constants (Kd's) for test compound-bromodomain interactions are calculated by measuring the amount of bromodomain captured on the solid support as a function of the test compound concentration.
(§2) Bromodomain assays. T7 phage strains displaying bromodomains were grown in parallel in 24-well blocks in an E. coli host derived from the BL21 strain. E. coli were grown to log-phase and infected with T7 phage from a frozen stock (multiplicity of infection=0.4) and incubated with shaking at 32° C. until lysis (90-150 minutes). The lysates were centrifuged (5,000×g) and filtered (0.2 μm) to remove cell debris. Streptavidin-coated magnetic beads were treated with biotinylated small molecule or acetylated peptide ligands for 30 minutes at room temperature to generate affinity resins for bromodomain assays. The liganded beads were blocked with excess biotin and washed with blocking buffer (SeaBlock (Pierce), 1% BSA, 0.05% Tween 20, 1 mM DTT) to remove unbound ligand and to reduce non-specific phage binding. […] Test compounds were prepared as 1000× stocks in 100% DMSO and subsequently diluted 1:10 in monoethylene glycol (MEG) to create stocks at 100× the screening concentration (resulting stock solution is 10% DMSO/90% MEG). The compounds were then diluted directly into the assays such that the final concentration of DMSO and MEG were 0.1% and 0.9%, respectively. All reactions were performed in polystyrene 96-well plates in a final volume of 0.135 ml.
(§3) The beads were then re-suspended in elution buffer (lx PBS, 0.05% Tween 20, 2 μM nonbiotinylated affinity ligand) and incubated at room temperature with shaking for 30 minutes. The bromodomain concentration in the eluates was measured by qPCR.
(§4) An 11-point 3-fold serial dilution of each test compound was prepared in 100% DMSO at 1000× final test concentration. This serial is then diluted to 100× in ethylene glycol and subsequently diluted to 1× in the assay (final DMSO concentration=0.1%, Ethylene glycol concentration=0.9%). […] If the initial Kd determined was <0.169 nM (the lowest concentration tested), the measurement was repeated with a serial dilution starting at a lower top concentration.
(§5) Binding constants (Kd's) were calculated with a standard dose-response curve using the Hill equation: Response=Background+Signal−Background 1+(Kd Hill Slope/DoseHill Slope) The Hill Slope was set to −1. Curves were fitted using a non-linear least square fit with the Levenberg-Marquardt algorithm.

[2] = target: T2, BRPF2 (Homo sapiens, UniProt O95696); test: BROMOscan DiscoveRx Binding Constant Assay (BRPF2); settings: qPCR readout
T2 construct: purchased DiscoveRx (BROMOscan); host or cells: T7 phage in E. coli host derived from BL21
T2 sequence (O95696 562-666 limits assumed): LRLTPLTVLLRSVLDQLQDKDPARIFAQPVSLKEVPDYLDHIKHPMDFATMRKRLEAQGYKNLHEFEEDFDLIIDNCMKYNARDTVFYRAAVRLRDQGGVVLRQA
From the text: as §1, §2, §3, §4, §5

[3] = target: T3, BRPF3 (Homo sapiens, UniProt Q9ULD4); test: BROMOscan DiscoveRx Binding Constant Assay (BRPF3); settings: qPCR readout
T3 construct: purchased DiscoveRx (BROMOscan); host or cells: T7 phage in E. coli host derived from BL21
T3 sequence (Q9ULD4 589-693 limits assumed): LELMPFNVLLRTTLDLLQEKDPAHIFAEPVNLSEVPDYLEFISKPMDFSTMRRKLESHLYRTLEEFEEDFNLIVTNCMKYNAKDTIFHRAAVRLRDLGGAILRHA
From the text: as §1, §2, §3, §4, §5

[4] = target: T4, Recombinant human His-tagged Trim24-PHD-bromodomain (Homo sapiens, UniProt O15164); test: Trim24 AlphaScreen Assay; format: binding; settings: 5 nM Trim24 protein, 15 nM biotinylated H3K23ac (1-33aa) peptide
T4 construct: Recombinant human His-tagged Trim24-PHD-bromodomain (produced in-house); made in house
T4 sequence (O15164 824-1006 limits assumed): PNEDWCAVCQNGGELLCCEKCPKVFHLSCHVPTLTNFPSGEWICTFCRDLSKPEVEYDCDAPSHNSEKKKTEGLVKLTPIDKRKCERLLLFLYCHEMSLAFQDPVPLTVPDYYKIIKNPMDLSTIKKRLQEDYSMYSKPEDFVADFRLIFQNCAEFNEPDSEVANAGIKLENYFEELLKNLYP
Method in brief: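 AlphaScreen read-out after 2 h with streptavidin donor and Ni-chelate acceptor beads at 10 ug/mL each, following 1 h room-temperature incubation of compound, His-tagged PHD-bromodomain protein and biotin-H3K23ac (1-33aa) peptide in Hepes pH 7.5 buffer with NaCl and Triton X-100. Signals normalised between no-compound and no-protein wells; IC50 from four-parameter logistic curves.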

[5] = target: T5, TRIM24 (Homo sapiens, UniProt O15164); test: BROMOscan DiscoveRx Binding Constant Assay (TRIM24); settings: qPCR readout
T5 construct: purchased DiscoveRx (BROMOscan); host or cells: T7 phage in E. coli host derived from BL21
T5 sequence (O15164 899-1004 limits assumed): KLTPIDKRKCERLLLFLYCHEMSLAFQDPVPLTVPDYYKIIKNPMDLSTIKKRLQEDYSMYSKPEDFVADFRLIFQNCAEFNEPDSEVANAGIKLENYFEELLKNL
From the text: as §1, §2, §3, §4, §5

Compound | pKd [1] | pKd [2] | pKd [3] | pIC50 [4] | pKd [5]
CCCOc1cc(OCCCCCCN)cc(Oc2cc3c(cc2NS(=O)(=O)c2cn(C)cn2)n(C)c(=O)n3C)c1 [Example 8, N-(6-(3-((6-aminohexyl)oxy)-5-propoxyphenoxy)-1,3-dimethyl-2-oxo-2,3-dihydro-1H-benzo[d]imidazol-5-yl)-1-methyl-1H-imidazole-4-sulfonamide 2,2,2-trifluoroacetate] | 8.00 to 9.00 | 8.00 to 9.00 | 7.00 to 7.96 | 8.00 to 9.00 | > 9.00
CCCOc1cccc(Oc2cc3c(cc2NS(=O)(=O)c2ccc(OC)c(OC)c2)n(C)c(=O)n3C)c1 [Example 110, N-(1,3-dimethyl-2-oxo-6-(3-propoxyphenoxy)-2,3-dihydro-1H-benzo[d]imidazol-5-yl)-3,4-dimethoxybenzenesulfonamide] | 8.00 to 9.00 | 7.00 to 7.96 | 7.00 to 7.96 | 7.00 to 8.00 | 8.00 to 9.00
COCCCOc1cccc(Oc2cc3c(cc2NS(=O)(=O)c2cn(C)c(C)n2)n(C)c(=O)n3C)c1 [Example 46, N-(6-(3-(3-methoxypropoxy)phenoxy)-1,3-dimethyl-2-oxo-2,3-dihydro-1H-benzo[d]imidazol-5-yl)-1,2-dimethyl-1H-imidazole-4-sulfonamide] | 7.00 to 7.96 | 7.00 to 7.96 | < 7.00 | 6.00 to 7.00 | 7.00 to 7.96
Cc1nc(S(=O)(=O)Nc2cc3c(cc2Oc2cccc(OCC(C)C)c2)n(C)c(=O)n3C)cn1C [Example 45, N-(6-(3-isobutoxyphenoxy)-1,3-dimethyl-2-oxo-2,3-dihydro-1H-benzo[d]imidazol-5-yl)-1,2-dimethyl-1H-imidazole-4-sulfonamide] | 7.00 to 7.96 | 7.00 to 7.96 | 7.00 to 7.96 | 7.00 to 8.00 | 8.00 to 9.00
COCCCn1cnc(S(=O)(=O)Nc2cc3c(cc2Oc2cccc(OCC(F)(F)F)c2)n(C)c(=O)n3C)c1 [Example 96, N-(1,3-dimethyl-2-oxo-6-(3-(2,2,2-trifluoroethoxy)phenoxy)-2,3-dihydro-1H-benzo[d]imidazol-5-yl)-1-(3-methoxypropyl)-1H-imidazole-4-sulfonamide] | – | – | – | 7.00 to 8.00 | –
Cn1cnc(S(=O)(=O)Nc2cc3c(cc2Oc2cccc(OCC4CC4)c2)n(C)c(=O)n3C)c1 [Example 100, N-(6-(3-(cyclopropylmethoxy)phenoxy)-1,3-dimethyl-2-oxo-2,3-dihydro-1H-benzo[d]imidazol-5-yl)-1-methyl-1H-imidazole-4-sulfonamide] | – | – | – | 7.00 to 8.00 | –
CCCOc1cccc(Oc2cc3c(cc2NS(=O)(=O)c2cc(C)nn2C)n(C)c(=O)n3C)c1 [Example 93, N-(1,3-dimethyl-2-oxo-6-(3-propoxyphenoxy)-2,3-dihydro-1H-benzo[d]imidazol-5-yl)-1,3-dimethyl-1H-pyrazole-5-sulfonamide] | – | – | – | 6.00 to 7.00 | –
CNCC(C)(O)COc1cccc(Oc2cc3c(cc2NS(=O)(=O)c2cn(C)cn2)n(C)c(=O)n3C)c1 (centres unmarked) [Example 235, N-(6-{3-[2-hydroxy-2-methyl-3-(methylamino)propoxy]phenoxy}-1,3-dimethyl-2-oxo-2,3-dihydro-1H-1,3-benzodiazol-5-yl)-1-methyl-1H-imidazole-4-sulfonamide] | – | – | – | < 6.00 | –
CCCOc1cc(OCCCCN)cc(Oc2cc3c(cc2NS(=O)(=O)c2cccc(C(=O)OC)c2)n(C)c(=O)n3C)c1 [Example 252, Methyl 3-({6-[3-(4-aminobutoxy)-5-propoxyphenoxy]-1,3-dimethyl-2-oxo-2,3-dihydro-1H-1,3-benzodiazol-5-yl}sulfamoyl)benzoate] | – | – | – | 7.00 to 8.00 | –
C=CCOc1cccc(Oc2cc3c(cc2NS(=O)(=O)c2ccccn2)n(C)c(=O)n3C)c1 [Example 144, N-(6-(3-(allyloxy)phenoxy)-1,3-dimethyl-2-oxo-2,3-dihydro-1H-benzo[d]imidazol-5-yl)pyridine-2-sulfonamide] | – | – | – | 6.00 to 7.00 | –
COc1ccc(S(=O)(=O)Nc2cc3c(cc2Oc2cccc(OCc4ccccn4)c2)n(C)c(=O)n3C)cc1OC [Example 29, N-(1,3-dimethyl-2-oxo-6-(3-(pyridin-2-ylmethoxy)phenoxy)-2,3-dihydro-1H-benzo[d]imidazol-5-yl)-3,4-dimethoxybenzenesulfonamide] | – | – | – | 6.00 to 7.00 | –
Cn1c(=O)n(C)c2cc(Oc3cccc(OCC(F)(F)F)c3)c(NS(=O)(=O)c3c[nH]cn3)cc21 [Example 88, N-(1,3-dimethyl-2-oxo-6-(3-(2,2,2-trifluoroethoxy)phenoxy)-2,3-dihydro-1H-benzo[d]imidazol-5-yl)-1H-imidazole-4-sulfonamide] | – | – | – | 7.00 to 8.00 | –
CCCOc1cc(OCCCCCCN)cc(Oc2cc3c(cc2NS(=O)(=O)c2cccc(C(=O)OC)c2)n(C)c(=O)n3C)c1 [Example 191, methyl 3-(N-(6-(3-((6-aminohexyl)oxy)-5-propoxyphenoxy)-1,3-dimethyl-2-oxo-2,3-dihydro-1H-benzo[d]imidazol-5-yl)sulfamoyl)benzoate] | – | – | – | 7.00 to 8.00 | –
COc1cc(S(=O)(=O)Nc2cc3c(cc2Oc2cccc(OCC4CC4)c2)n(C)c(=O)n3C)ccc1O [Example 241, N-(6-(3-(cyclopropylmethoxy)phenoxy)-1,3-dimethyl-2-oxo-2,3-dihydro-1H-benzo[d]imidazol-5-yl)-4-hydroxy-3-methoxybenzenesulfonamide] | – | – | – | 7.00 to 8.00 | –
CCCOc1cccc(Oc2cc3c(cc2NS(=O)(=O)c2cn(C)cn2)n(C)c(=O)n3C)c1Cl [Example 111, N-(6-(2-chloro-3-propoxyphenoxy)-1,3-dimethyl-2-oxo-2,3-dihydro-1H-benzo[d]imidazol-5-yl)-1-methyl-1H-imidazole-4-sulfonamide] | – | – | – | < 6.00 | –
Cn1c(=O)n(C)c2cc(Oc3cccc(OCc4ccccc4)c3)c(NS(=O)(=O)c3nnc[nH]3)cc21 [Example 22, N-(6-(3-(benzyloxy)phenoxy)-1,3-dimethyl-2-oxo-2,3-dihydro-1H-benzo[d]imidazol-5-yl)-4H-1,2,4-triazole-3-sulfonamide] | – | – | – | 6.00 to 7.00 | –
CCCOc1cccc(Oc2cc3c(cc2NS(=O)(=O)c2ccc(OC)cc2)n(C)c(=O)n3C)c1 [Example 171, N-(1,3-dimethyl-2-oxo-6-(3-propoxyphenoxy)-2,3-dihydro-1H-benzo[d]imidazol-5-yl)-4-methoxybenzenesulfonamide] | – | – | – | 6.00 to 7.00 | –
Cc1nc(S(=O)(=O)Nc2cc3c(cc2Oc2cccc(OCCCO)c2)n(C)c(=O)n3C)cn1C [Example 55, N-(6-(3-(3-hydroxypropoxy)phenoxy)-1,3-dimethyl-2-oxo-2,3-dihydro-1H-benzo[d]imidazol-5-yl)-1,2-dimethyl-1H-imidazole-4-sulfonamide] | – | – | – | 6.00 to 7.00 | –
CCCOc1cccc(Oc2cc3c(cc2NS(=O)(=O)C2CC2)n(C)c(=O)n3C)c1 [Example 82, N-(1,3-dimethyl-2-oxo-6-(3-propoxyphenoxy)-2,3-dihydro-1H-benzo[d]imidazol-5-yl)cyclopropanesulfonamide] | – | – | – | 6.00 to 7.00 | –
